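Where inhibition never reached the appropriate level, the endpoint shown equals the highest concentration tested. Otherwise, values were interpolated linearly from a five-concentration, 48-hour dose response in 96-well plates. Here, GI50 denotes the concentration required for 50% inhibition of growth.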 Active and inactive are the calls of the source. Rule as the data show it: active = GI50 up to about 1.1 µM and inactive = higher.
Experiments:
Experiment in all cases: inhibition of tumour cell growth, NCI panel, 48 h
[1] = tested on: MDA-MB-435
[2] = tested on: SNB-75
[3] = tested on: MCF7
[4] = tested on: PC-3
[5] = tested on: SK-MEL-2
[6] = tested on: UACC-62
[7] = tested on: MDA-N
[8] = tested on: HL-60
[9] = tested on: BT-549
[10] = tested on: NCI/ADR-RES
[11] = tested on: A498
[12] = tested on: OVCAR-4
[13] = tested on: UACC-257
[14] = tested on: K562
[15] = tested on: NCI-H226
[16] = tested on: HCC 2998
[17] = tested on: CCRF-CEM
[18] = tested on: SF-268
[19] = tested on: MDA-MB-231
[20] = tested on: EKVX

| Compound | GI50 [1] | GI50 [2] | GI50 [3] | GI50 [4] | GI50 [5] | GI50 [6] | GI50 [7] | GI50 [8] | GI50 [9] | GI50 [10] | GI50 [11] | GI50 [12] | GI50 [13] | GI50 [14] | GI50 [15] | GI50 [16] | GI50 [17] | GI50 [18] | GI50 [19] | GI50 [20] |
| --- | --- | --- | --- | --- | --- | --- | --- | --- | --- | --- | --- | --- | --- | --- | --- | --- | --- | --- | --- | --- |
| CC(CC(=O)O)(CC(=O)O)c1ccccc1 | > 100 µM (inactive) | > 100 µM (inactive) | > 100 µM (inactive) | > 100 µM (inactive) | > 100 µM (inactive) | > 100 µM (inactive) | > 100 µM (inactive) | > 100 µM (inactive) | > 100 µM (inactive) | > 100 µM (inactive) | > 100 µM (inactive) | > 100 µM (inactive) | > 100 µM (inactive) | 50.2 µM (inactive) | > 100 µM (inactive) | > 100 µM (inactive) | > 100 µM (inactive) | > 100 µM (inactive) | > 100 µM (inactive) | > 100 µM (inactive) |
| CC(=O)OC1(C)C=CC(=O)C=C1 | 29.9 µM (inactive) | 84.1 µM (inactive) | 20.4 µM (inactive) | 27.4 µM (inactive) | 28.2 µM (inactive) | 17.1 µM (inactive) | 31.2 µM (inactive) | 27.9 µM (inactive) | 57.3 µM (inactive) | 6.3 µM (inactive) | 31.6 µM (inactive) | 53.5 µM (inactive) | 17.1 µM (inactive) | 50.8 µM (inactive) | 26.2 µM (inactive) | > 100 µM (inactive) | 44.1 µM (inactive) | 31 µM (inactive) | 24.2 µM (inactive) | 62.5 µM (inactive) |
| CC1=CC(=O)/C(=C/N2CCNC2=S)C(=O)O1 | > 100 µM (inactive) | 89.7 µM (inactive) | > 100 µM (inactive) | > 100 µM (inactive) | > 100 µM (inactive) | > 100 µM (inactive) | > 100 µM (inactive) | > 100 µM (inactive) | > 100 µM (inactive) | > 100 µM (inactive) | > 100 µM (inactive) | > 100 µM (inactive) | > 100 µM (inactive) | > 100 µM (inactive) | > 100 µM (inactive) | > 100 µM (inactive) | > 100 µM (inactive) | > 100 µM (inactive) | > 100 µM (inactive) | > 100 µM (inactive) |
| Cc1cc2oc(C)c(S(=O)(=O)NC(=O)Nc3ccc(Cl)cc3)c(=O)c2c(=O)o1 | > 100 µM (inactive) | > 100 µM (inactive) | > 100 µM (inactive) | 83.6 µM (inactive) | > 100 µM (inactive) | 30.9 µM (inactive) | > 100 µM (inactive) | > 100 µM (inactive) | > 100 µM (inactive) | > 100 µM (inactive) | > 100 µM (inactive) | > 100 µM (inactive) | > 100 µM (inactive) | > 100 µM (inactive) | > 100 µM (inactive) | > 100 µM (inactive) | > 100 µM (inactive) | > 100 µM (inactive) | > 100 µM (inactive) | > 100 µM (inactive) |
| COC(=O)c1ccc([N+](=O)[O-])c(O)c1 | 8.55 µM (inactive) | > 100 µM (inactive) | > 100 µM (inactive) | > 100 µM (inactive) | > 100 µM (inactive) | > 100 µM (inactive) | > 100 µM (inactive) | > 100 µM (inactive) | > 100 µM (inactive) | > 100 µM (inactive) | > 100 µM (inactive) | 19.9 µM (inactive) | > 100 µM (inactive) | > 100 µM (inactive) | > 100 µM (inactive) | > 100 µM (inactive) | > 100 µM (inactive) | > 100 µM (inactive) | > 100 µM (inactive) | > 100 µM (inactive) |
| CN(C)CCOc1ccc2c(c1)C/C(=C/c1ncc([N+](=O)[O-])n1C)C2=O | 2.99 µM (inactive) | 2.28 µM (inactive) | 0.703 µM (active) | 3.4 µM (inactive) | 1.67 µM (inactive) | 1.95 µM (inactive) | 3.94 µM (inactive) | 3.25 µM (inactive) | 1.04 µM (active) | 8.36 µM (inactive) | 2.23 µM (inactive) | 1.53 µM (inactive) | 3.79 µM (inactive) | 1.49 µM (inactive) | 1.46 µM (inactive) | 2.03 µM (inactive) | 2.7 µM (inactive) | 1.89 µM (inactive) | 1.91 µM (inactive) | 3.61 µM (inactive) |
| COc1c(-c2ccc3c(c2)OCO3)oc2cc3c(c(OC)c2c1=O)OCO3 [MELITERNATIN] | 17.6 µM (inactive) | 16.3 µM (inactive) | 18.4 µM (inactive) | 21.1 µM (inactive) | 19.6 µM (inactive) | 23.9 µM (inactive) | 18.5 µM (inactive) | 1.09 µM (active) | 12.8 µM (inactive) | 27.6 µM (inactive) | 23.5 µM (inactive) | 24.2 µM (inactive) | 38.5 µM (inactive) | 23.8 µM (inactive) | 18.7 µM (inactive) | 26.9 µM (inactive) | 30.8 µM (inactive) | 14.2 µM (inactive) | 43 µM (inactive) | 24.5 µM (inactive) |
| O=C1/C(=C/c2cccnc2)C(n2cccc2)c2c(Br)sc(Br)c21 (stereo not given) | 1.73 µM (inactive) | 2 µM (inactive) | 1.8 µM (inactive) | 2.14 µM (inactive) | 2.26 µM (inactive) | 2 µM (inactive) | 2.05 µM (inactive) | 1.83 µM (inactive) | 9.57 µM (inactive) | 7.43 µM (inactive) | 16.6 µM (inactive) | 2.07 µM (inactive) | 1.72 µM (inactive) | 2.17 µM (inactive) | 41.3 µM (inactive) | 0.916 µM (active) | 1.93 µM (inactive) | 2.13 µM (inactive) | 1.8 µM (inactive) | 2 µM (inactive) |
| CC(C)(C)[Si](C)(C)OCC1OC(n2cc(F)c(=O)[nH]c2=O)CC1O[Si](C)(C)C(C)(C)C (stereo not given) | 12 µM (inactive) | 4.03 µM (inactive) | 5.01 µM (inactive) | 3.16 µM (inactive) | 12.1 µM (inactive) | 5.14 µM (inactive) | 6.21 µM (inactive) | 3.78 µM (inactive) | 5.43 µM (inactive) | 16 µM (inactive) | 6.87 µM (inactive) | 6.46 µM (inactive) | 4.02 µM (inactive) | 4.14 µM (inactive) | 19.4 µM (inactive) | 1.72 µM (inactive) | 4.17 µM (inactive) | 14.5 µM (inactive) | 7.5 µM (inactive) | 8.04 µM (inactive) |
| Oc1c(Cl)c(Cl)c(Cl)c(Cl)c1Cl [PENTACHLOROPHENOL] | 20.7 µM (inactive) | 22.9 µM (inactive) | 24.9 µM (inactive) | 18.9 µM (inactive) | 16 µM (inactive) | 16.4 µM (inactive) | 23.2 µM (inactive) | 17.5 µM (inactive) | 25.6 µM (inactive) | 17.9 µM (inactive) | 19 µM (inactive) | 21.8 µM (inactive) | > 100 µM (inactive) | 26.4 µM (inactive) | 28.4 µM (inactive) | > 100 µM (inactive) | 21.3 µM (inactive) | 31.1 µM (inactive) | 13.3 µM (inactive) | 23.4 µM (inactive) |
| C#CCN(Cc1ccc2nc(OC)c(OC)nc2c1)c1cc(OC)c(OC)c(OC)c1 | 6.59 µM (inactive) | 33.7 µM (inactive) | 11.9 µM (inactive) | 26.1 µM (inactive) | 23.1 µM (inactive) | 18.9 µM (inactive) | 7.31 µM (inactive) | 12.7 µM (inactive) | 15.4 µM (inactive) | 10.7 µM (inactive) | 35.5 µM (inactive) | 13.4 µM (inactive) | 12.3 µM (inactive) | 3.98 µM (inactive) | 15.7 µM (inactive) | 35.1 µM (inactive) | 34.9 µM (inactive) | 25.1 µM (inactive) | 12.1 µM (inactive) | 14.8 µM (inactive) |
| CCOC(=O)/C(C(C)=O)=C(\OC(C)=O)c1ccncc1C(=O)O | > 100 µM (inactive) | > 100 µM (inactive) | > 100 µM (inactive) | > 100 µM (inactive) | > 100 µM (inactive) | > 100 µM (inactive) | > 100 µM (inactive) | > 100 µM (inactive) | > 100 µM (inactive) | > 100 µM (inactive) | > 100 µM (inactive) | > 100 µM (inactive) | > 100 µM (inactive) | > 100 µM (inactive) | > 100 µM (inactive) | > 100 µM (inactive) | > 100 µM (inactive) | > 100 µM (inactive) | > 100 µM (inactive) | > 100 µM (inactive) |
| CC(=O)c1c(C(F)(F)F)[n+]([O-])c2cc(Cl)c(Cl)cc2[n+]1[O-] | 1.3 µM (inactive) | 1.07 µM (active) | 0.265 µM (active) | 1.31 µM (inactive) | 1.19 µM (inactive) | 1.26 µM (inactive) | 1.12 µM (inactive) | 0.338 µM (active) | 0.211 µM (active) | 1.5 µM (inactive) | 1.15 µM (inactive) | 1.4 µM (inactive) | 0.762 µM (active) | 0.977 µM (active) | 1.46 µM (inactive) | 0.184 µM (active) | 0.146 µM (active) | 1.15 µM (inactive) | 1.3 µM (inactive) | 1.29 µM (inactive) |

— ChEMBL document CHEMBL1201862, “PubChem BioAssay data set” (2004)
